Data on 3 compounds can be found in patent publication US9499511B2, “N-substituted hydroxylamine derivatives with carbon-based leaving groups” (The Johns Hopkins University, priority 2011, dated 2016).

Like-named read-outs stand apart in the source and are kept apart here.

Data set [1] is described as follows: N2O headspace analysis (GC) of HNO production, relative to Angeli's salt. The format is physicochemical. The procedure: Nitrous oxide is produced via the dimerization and dehydration of HNO, and is the most common marker for HNO production (Fukuto, J. M. et al., Chem. Res. Toxicol. 2005, 18, 790-801).
Gas chromatography was performed on a Varian CP-3800 instrument equipped with a 1041 manual injector, electron capture detector, and a 25 m 5 Å molecular sieve capillary column. Grade 5.0 nitrogen was used as both the carrier (8 mL/min) and the make-up (22 mL/min) gas. The injector oven and the detector oven were kept at 200° C. and 300° C., respectively. All nitrous oxide analyses were performed with the column oven held constant at 150° C. All gas injections were made using a 100 μL gastight syringe with a sample-lock. Samples were prepared in 15 mL amber headspace vials with volumes pre-measured for sample uniformity (actual vial volume ranges from 15.19-15.20 mL). Vials were charged with 5 mL of PBS buffer containing DTPA, purged with argon, and sealed with a rubber septum. The vials were equilibrated for at least 10 minutes at 37° C. in a dry block heater. A 10 mM stock solution of Angeli's salt (AS) was prepared in 10 mM sodium hydroxide, and HNO donors 1a-4a, 6a (10 mM) were prepared in acetonitrile or methanol and used immediately after preparation. From these stock solutions, 50 μL was introduced into individual thermally-equilibrated headspace vials using a gastight syringe, yielding final substrate concentrations of 0.1 mM. Substrates were then incubated long enough to ensure complete decomposition and equilibration of N2O with the headspace. The headspace (60 μL) was then sampled and injected five successive times using a gastight syringe with a sample lock. This was repeated for n≧3 vials per donor. The nitrous oxide yield was averaged and reported relative to the standard, Angeli's salt. For chemical trapping of HNO, glutathione (100 μL of 10 mM in PBS) was added prior to HNO donor addition to give a final glutathione concentration of 0.2 mM, and headspace sampling for N2O was analogously performed as stated above.

Data set [2] in a line: Decomposition kinetics monitored by UV-Vis spectroscopy. It counts as physicochemical. Particulars: PBS, pH 7.4, Condition A: pH 7.4, 37° C., 0.1M PBS, 100 μL DTPA, air (UV/Vis).
For the next data set, the system named is Sprague-Dawley rats. Put plainly: Acute cardiovascular effects, pressure-volume (PV) loop analysis in anesthetized rats. The format is in vivo, rat. The conditions noted are these: IV infusion 100 μg/kg/min, 5 rats. The procedure:
The acute cardiovascular effects of compounds 4a and 6a, when administered intravenously to Sprague-Dawley rats at an infusion rate of 100 μg/kg/min, were examined by means of pressure-volume (PV) curve (loops) analysis. PV families/relationships were generated via pre-load variation and hemodynamic indices were compared to baseline values. Each test article was administered to 5 rats.
Rats were intraperitoneally (IP) anesthetized to effect with pentobarbital (˜50 mg/kg), shaved and positioned in dorsal recumbence, endotracheally intubated and ventilated […], ˜2.5 mL tidal volume with 95% O2/5% CO2) with an adjustable small animal ventilator (Harvard Apparatus). Anesthesia was maintained with a continuous pentobarbital infusion (to effect, ˜3 to 5 mg/kg/h, IV) until completion of the experiment via an indwelling catheter placed in a femoral vein. Subsequently, transthoracic needle electrodes forming a single-lead ECG were placed. For LV mechano-energetic evaluation, the right carotid artery was isolated, dissected free from the surrounding tissue, and cannulated with a 2F high-fidelity conductance/micromanometer catheter (Millar Instruments). This catheter was advanced retrograde across the aortic valve and into the LV chamber in order to simultaneously determine left-ventricular pressure and volume (via conductivity). […] Meanwhile, in order to record arterial pressures, a 2F high-fidelity micromanometer catheter (Millar Instruments) was inserted into a femoral artery and advanced towards the abdominal aorta. Finally, an in-dwelling catheter was placed into the jugular vein for administration of test article.
Following collection of baseline hemodynamic data, infusion of test article was initiated at an infusion rate of 100 μg/kg/min; at 10 μL/min. Pressure-volume analyses were performed again approximately 30 min and 45 min after the initiation of the dose.
The resulting left-ventricular pressure and volume data was analyzed offline (IOX/ECG Auto; EMKA Technologies) in order to generate relationships representing the contractile and energetic state of the myocardium. Systolic (SAP), diastolic (DAP), and mean (MAP) arterial pressures were collected. Left-ventricular mechanical and/or geometrical indices were obtained from the pressure (ESP, EDP, dP/dt max/min, time-constant of relaxation—tau [based on mono-exponential decay with non-zero asymptote]) and volume (ESV, EDV, SV) signal. In addition, the following measurements were derived from left-ventricular pressure-volume data (PV loops) generated during brief periods of preload reduction: • Pressure volume area (PVA) and stroke work (SW). • End-systolic (ESPVR) and end-diastolic (EDPVR) pressure volume relationships. • End systolic pressure and stroke volume relationship (Arterial Elastance, Ea).
Data are presented as means with standard errors (mean±SEM) in Table 6.

The nature of data set [3]: Decomposition kinetics monitored by UV-Vis spectroscopy. The format is physicochemical. The procedure:
NMR spectra were obtained on a Bruker Avance 400 MHz FT-NMR spectrometer. […] High-resolution mass spectra were obtained on a VG Analytical VG70SE magnetic sector mass spectrometer operating in fast atom bombardment (FAB) mode. […] Phosphate-buffered saline (PBS) solutions (0.1 M) were prepared with 140 mM NaCl and 3 mM KCl, with 100 μM diethylenetriaminepentaacetic acid (DTPA), adjusted to pH 7.4.

A short description of data set [4]: pKa of carbanion byproduct (concentration of b / b-H+ as a function of pH, UV-Vis). It counts as physicochemical. The text has this:
FIG. 2A and FIG. 2B show a graph plotting the concentration of 4b, 4b-H^+ (FIG. 2A) and 6b, 6b-H^+ (FIG. 2B) as a function of pH. In FIG. 2A, the squares represent 4b-H^+ (λmax=298 nm), and the circles represent carbanion 4b (λmax=261 nm). In FIG. 2B, the squares represent 6b-H^+ (λmax=270 nm), where the last three data points were omitted due to spectral overlap, and the circles represent carbanion 6b (λmax=253 nm).
NMR spectra were obtained on a Bruker Avance 400 MHz FT-NMR spectrometer. All chemical shifts are reported in parts per million (ppm) relative to residual CHCl3 (7.26 ppm for ^1H, 77.23 ppm for ^13C), residual DMSO (2.50 ppm for ^1H, 39.52 for ^13C), or residual H2O (4.8 ppm for ^1H). High-resolution mass spectra were obtained on a VG Analytical VG70SE magnetic sector mass spectrometer operating in fast atom bombardment (FAB) mode. Ultraviolet-Visible (UV-Vis) absorption spectra were obtained using a Hewlett Packard 8453 diode array spectrometer. Phosphate-buffered saline (PBS) solutions (0.1 M) were prepared with 140 mM NaCl and 3 mM KCl, with 100 μM diethylenetriaminepentaacetic acid (DTPA), adjusted to pH 7.4. Buffered solutions (0.1 M) for UV-Vis experiments were prepared from HCl/NaCl (pH 1.7), AcOH/AcONa (pH 3.0, 3.5, 4.0, 4.5, 5.0, 5.5), or NaPO3H2/Na2PO3H (pH 6.0, 6.5, 7.0, 8.0, 9.0, 9.5, 9.8, 10.0, 10.5, 10.6).

`CO/N=C(\C)C1(NO)C(=O)N(c2ccccc2)N=C1C` (centres unmarked) [Compound 6a, 4-(N-hydroxylamine)-4-(acetyl-O-methoxyoxime)-N-phenyl-5-methyl-pyrazolone]: in data set [1] (decomposition at pH 7.4), the “HNO / N2O production (in words)” value was “efficiently produces HNO”. The “% HNO” value in data set [1] (donor 0.1 mM, 37° C., PBS pH 7.4, yield relative to Angeli's salt by N2O headspace analysis, SEM ±5%, n = 3) worked out at 110%. Moreover, the half-life in data set [2] was 9.5 min; in data set [3] (AcOH/AcONa buffer, pH 4, pH 4.0, room temperature, read-out: half-life (converted)), roughly 1500 min; in data set [3] (PBS, pH 7.4, footnote c not given, pH 7.4, 37° C., read-out: t1/2), 9.5 min; in data set [3] (PBS, pH 7.4, pH 7.4 and 37° C., read-out: half-life (converted)), roughly 10 min. In addition, in the data set on Sprague-Dawley rats (baseline 124 (4a) / 138 (6a)), the “Mean Blood Pressure” value was found to be 111 mmHg. In the data set with Sprague-Dawley rats (mean, baseline 1 (4a) / 2.2 (6a)), the “Stroke Volume” value was determined as 2.4 relative volume units. In addition, the “End Diastolic Pressure Volume Relationship” value with Sprague-Dawley rats (mean, baseline 1.7 (4a) / 1.8 (6a)) was 1.5. In addition, the “End Diastolic Pressure” value in the data set with Sprague-Dawley rats (mean, baseline 4.7 (4a) / 4.4 (6a)) was determined as 3.6 mmHg. In the data set on Sprague-Dawley rats (mean, baseline 8.5 (4a) / 8.7 (6a)), this compound gave a Tau of 8.6 ms. Besides, the “Arterial Elastance” value with Sprague-Dawley rats (mean, baseline 9.2 (4a) / 7.4 (6a)) stood at 5.7. The “End Diastolic Volume” value in the data set with Sprague-Dawley rats (mean, baseline 14.6 (4a) / 19.2 (6a)) is reported as 20 relative volume units. Moreover, the “End Systolic Pressure Volume Relationship” value in the data set on Sprague-Dawley rats (mean, baseline 28.1 (4a) / 23.7 (6a)) amounted to 31. For the same compound, in the data set with Sprague-Dawley rats (mean, baseline 37.6 (4a) / 42.8 (6a)), the “Pre-Load Recruitable Stroke Work” value came to 58.2. Besides, the “Diastolic Blood Pressure” value with Sprague-Dawley rats (mean, baseline 109 (4a) / 121 (6a)) was 97 mmHg. Further, the “Stroke Work” value in the data set on Sprague-Dawley rats (mean, baseline 112 (4a) / 227 (6a)) is recorded as 185 relative volume units × mmHg. In the data set on Sprague-Dawley rats (mean, baseline 134 (4a) / 141 (6a)), the “End Systolic Pressure” value worked out at 113 mmHg. The “Systolic Blood Pressure” value in the data set with Sprague-Dawley rats (mean, baseline 147 (4a) / 160 (6a)) came out at 130 mmHg. Further, the “Pressure Volume Area” value with Sprague-Dawley rats (mean, baseline 343 (4a) / 590 (6a)) is 318. For the same compound, in the data set with Sprague-Dawley rats (mean, baseline 365 (4a) / 340 (6a)), the “Heart Rate” value is 332 bp, m. Also, in the data set on Sprague-Dawley rats (mean, baseline 6392 (4a) / 7689 (6a)), the “Left Ventricular +dP/dt” value is recorded as 6044 mmHg/s. For the same compound, the “Left Ventricular −dP/dt” value in the data set on Sprague-Dawley rats (mean, baseline −7585 (4a) / −8257 (6a)) was −6549 mmHg/s. For the same compound, in data set [3] (decomposition rate as a function of pH at 25° C., UV-Vis), the “pH near which the decomposition rate sharply increases” value was roughly 10.
With `CO/N=C(\C)C1(NO)C(=O)N(C)N=C1C` (centres unmarked) [Compound 7a, 4-(N-hydroxylamine)-4-(acetyl-O-methoxyoxime)-N-methyl-5-methyl-pyrazolone], in data set [2], the half-life is 23 min.
As for “5-(acetyl-O-methoxyoxime)-N,N-dimethylbarbituric acid [Compound 4b]”, the pKa of byproduct entry in data set [4] is reported as “ca. 4.2”.
